In data set [1] the test system is normal human cells (THP-1 cells, PMA-differentiated THP-1 macrophages, human umbilical vein endothelial cells, human aortic smooth muscle cells). Briefly: Cytotoxic response in normal human cells. In kind it is cell-based. The note with it: 1-20 μM and up to about 100 μM.
In data set [2] the test system is IMR-32 cells. Description: Cell cycle analysis by flow cytometry (propidium iodide). In kind it is cell-based, human. The note with it: SsnB 10 μM, 2 days; control=19.25%. Here is the method: (§1) The cell cycle progression was determined by flow cytometer analysis. Neuroblastoma cells were treated with SsnB or DMSO in DMEM with 10% FBS. Cells were collected after trypsinization with trypsin-EDTA solution (Atlanta Biologicals) and washed with 1× phosphate buffered saline (PBS). Approximately 1×10^6 cells were suspended in 300 μl of ice-cold 1×PBS, fixed by adding 700 μl of chilled absolute ethanol (to make final ethanol concentration 70%) drop wise and incubated for overnight at −20° C. Cells were pelleted at 1000×rpm for 5 min at 4° C., washed with 1×PBS for 3 times and stained with propidium iodide (Sigma-Aldrich, St. Louis, Mo.) by adding 1 ml of propidium iodide staining solution (containing 20 μg/ml propidium iodide and 10 μg/ml DNase-free RNase A in 0.1% Triton X-100/PBS) for 1 h on ice in dark. Samples were subjected to fluorescence-activated cell sorting analyses utilizing Beckman Coulter flow cytometer (Beckman Coulter, Indianapolis, Ind.). A minimum of 10,000 events were analyzed in each experiment.
(§2) To test whether SsnB-induced cell growth inhibition occurs through cell cycle arrest, cell cycle distribution was analyzed by flow cytometry after DNA staining with propidium iodide.
(A flow cytometer gives signals particle by particle.)

Data set [3] concerns NGP cells. The description is as above. The note with it: SsnB 10 μM, 3 days; control=17.87%. Format: cell-based, human. On the procedure: as §1, §2
The subject of data set [4] is SH-SY5Y cells. The description is as above. In kind it is cell-based, human. The note with it: SsnB 10 μM, 2 days; control=14.33%. Here is the method: as §1, §2
Data set [5] has as its system SK-N-BE(2) cells. Described as above. Conditions: SsnB 10 μM, 4 days; control=22.63%. In kind it is cell-based, human. Here is the method: as §1, §2
Data set [6] relates to SKNF-1 cells. Described as above. Format: cell-based, human. Conditions: SsnB 10 μM, 4 days; control=14.53%. On the procedure:
as §1, §2

Data set [7] concerns neuroblastoma cell lines. Description: Cell cycle analysis by flow cytometry, all lines together. In kind it is cell-based, human. On the procedure:
as §1, §2

Data set [8] concerns human neuroblastoma cell lines (SH-SY5Y, SKNF-1, NGP, IMR-32 and SK-N-BE(2) cells). Description: Cell morphology by phase contrast microscopy. Format: cell-based. The source says: Human neuroblastoma cell lines (SH-SY5Y, IMR-32, SK-N-BE(2) and SKNF-1 cells) were obtained from The American Type Culture Collection (ATCC; Manassas, Va.), and NGP cells were kind gift from Garrett M. Brodeur (The Children's Hospital of Philadelphia, Philadelphia, Pa.). All cell lines were maintained in complete Dulbecco's Modified Eagle's Medium (DMEM) supplemented with 10% fetal bovine serum (FBS; Atlanta Biologicals, Lawrenceville, Ga.) and 1× antibiotic-antimycotic solution (containing 100 U/ml penicillin, 100 μg/ml streptomycin and 0.25 μg/ml amphotericin B), and grown at 37° C. in a humidified incubator with 5% CO2. Stock solution of SsnB was prepared in dimethyl sulfoxide (DMSO). Cells treated with different concentrations of SsnB in DMEM with 10% FBS were grown for subsequent days. Cells treated with equal volume of DMSO were used as control.
To test the inhibitory effects of SsnB on neuroblastoma cell survival, human neuroblastoma cell lines of different genetic background (SH-SY5Y, SKNF-1, NGP, IMR-32 and SK-N-BE(2) cells) were treated with 1 μM, 5 μM, 10 μM or 20 μM concentration of SsnB under in vitro conditions. Following SsnB treatments, neuroblastoma cell were grown and were photographed under light microscope to evaluate the cell morphology.

A short description of data set [9]: ROS-generating activity in cell-free system (H2DCFDA, HRP). In kind it is biochemical. The note with it: for increase of OD value vs H2DCFDA+HRP reaction: SsnB 10 μM + H2DCFDA 25 μM + HRP 5 units/ml. On the procedure:
FIG. 2D and FIG. 2E illustrate the ROS generating capacity of SsnB evaluated in a cell-free system containing H2DCFDA (25 μM), horseradish peroxidase (HRP, 5 units/ml), SsnB (10 μM) and glutathione (GSH, 0.25 or 2.5 μM) alone or in various combinations. Optical density (O.D.) at 540 nm were taken at different time points and plotted.
In a reaction system, after the removal of acetate group by cellular esterases and oxidation by reactive oxygen species, the non-fluorescent carboxy-H2DCFDA dye is oxidized to fluorescent molecule carboxy-DCF. To measure the ROS-generating activity of SsnB, the oxidation of carboxy-H2DCFDA dye was monitored in a cell-free system containing carboxy-H2DCFDA dye, horseradish peroxidase (HRP) and SsnB at 540 nm. HRP was used to supply esterase since without esterase carboxy-H2DCFDA is not sensitive to oxidant. […] After addition of HRP (5 units/ml) in the reaction mixture containing SsnB (10 μM)+H2DCFDA dye (25 μM), the OD value increased by 2% in the first 240 sec and further increased by 8% after 15 min compared to H2DCFDA+HRP reaction, indicating the increased oxidation of H2DCFDA to the fluorescent compound.

For data set [10], the system named is intracellular GSH in neuroblastoma cells. Description: Cellular glutathione level, luminescence GSH-Glo assay. In kind it is cell-based, human. On the procedure:
Cells treated with SsnB or DMSO were washed and re-suspended in PBS and the intracellular GSH level was measured by luminescence based GSH-Glo glutathione assay kit (Promega, Madison, Wis.) following manufacturer's protocol. The luminescence was monitored in a luminometer (Promega Biosystems, Sunnyvale, Calif.).
At the cellular level, reduced glutathione (GSH) protects cells from oxidative damage resulted from increased superoxides, peroxides and free radicals. Since SsnB induces oxidative stress, SsnB affect of intracellular levels of GSH in neuroblastoma cells was examined. After treatment with SsnB for 2 days (SH-SY5Y and IMR-32), 3 days (NGP cells) or 4 days (SKNF-1 and SK-N-BE(2) cells), the cellular GSH level was measured by luminescence based glutathione assay kit.

Regarding `O=c1occ2c3c(ccc(O)c13)Oc1ccc(O)cc1-2` [SsnB, 8,5′-dihydroxy-4-phenyl-5,2′-oxidoisocoumarin], the cytotoxic response entry in [1] is “No cytotoxic response”. Moreover, the G2/M phase cells in [2] worked out at 23.45%; in data set [3], 26.98%; in data set [4], 23.98%; in data set [5], 27.15%; in data set [6] it was 20.91%. Besides, the “cell cycle progression vs DMSO” value in data set [7] (SsnB 1 μM) is “did not affect cell cycle progression”. In addition, the G0/G1 phase cells result in data set [7] (SsnB 10 μM) is recorded as “decrease in G0/G1 phase cells”. In data set [8] (SsnB 10 μM and above, 2, 3 or 4 days depending on line), the “cell morphology (rounded cells, indication of cell death) vs DMSO” value was “changed the morphology”. For the same molecule, in data set [8] (SsnB 1 or 5 μM, any cell line tested), the morphological changes result was “not significant”. Also, the entries for the “increase of OD value vs H2DCFDA+HRP reaction” value in data set [9] (after 15 min) and in data set [9] (first 240 sec) were 8% and 2%, respectively. Also, in data set [9] (SsnB 10 μM + H2DCFDA 25 μM, without HRP), the “optical density at 540 nm” value was “remained constant”. The “cellular GSH level” value is reported as “slightly higher or equal to control levels” in data set [10] (SsnB 1 μM) and ~40 % of control in data set [10] (SsnB 10 μM, 2, 3 or 4 days depending on line, p<0.05).

The values are drawn from patent US9446019B2, “Sparstolonin B based pharmaceutical agent for neuroblastoma treatment” (University of South Carolina, priority 2013, dated 2016).
